The results in this text go back to ChEMBL document CHEMBL5046253, “Synthesis and bioevaluation of diaryl urea derivatives as potential antitumor agents for the treatment of human colorectal cancer” (Eur J Med Chem, 2022).

pIC50: −log10 of the molar value. Active and inactive are the calls of the source.

The test system of data set [1] is HCT-116. Put plainly: Inhibition of AKT phosphorylation at S473 residue in human HCT-116 cells at 10 uM after 24 hrs by Western blot analysis. The data set is classed as cell-based.
A short description of data set [2]: Metabolic stability in Sprague-Dawley rat liver microsome. It counts as ADME. Particulars: microsomes. On the technique in general: Liver microsomes are a subcellular fraction often used to study metabolism.
A short description of data set [3]: AUC (0 to 72 hrs) in Sprague-Dawley rat at 20 mg/kg, iv by LC-MS/MS analysis. Particulars: in vivo. It counts as ADME, organism-based. The arrangement: time < 72 hr, route intravenous, dose 20 mg/kg.
Data set [4] is described as follows: AUC (0 to infinity) in Sprague-Dawley rat at 20 mg/kg, iv by LC-MS/MS analysis. The data set is classed as ADME, organism-based. Details: route intravenous, time infinity, dose 20 mg/kg. The settings on record: in vivo.
Data set [5] in a line: MRT in Sprague-Dawley rat at 20 mg/kg, iv by LC-MS/MS analysis. Particulars: in vivo. The data set is classed as ADME, organism-based.
A short description of data set [6]: Half life in Sprague-Dawley rat at 20 mg/kg, iv by LC-MS/MS analysis. The settings on record: in vivo. It counts as ADME, organism-based.
A short description of data set [7]: Tmax in Sprague-Dawley rat at 20 mg/kg, iv by LC-MS/MS analysis. It counts as ADME, organism-based. Particulars: in vivo.
Data set [8] is described as follows: Volume of distribution at steady state in Sprague-Dawley rat at 20 mg/kg, iv by LC-MS/MS analysis. The data set is classed as ADME, organism-based. Particulars: in vivo.
The target in data set [9] is Cytochrome P450 1A2 (Homo sapiens, UniProt P05177). Put plainly: Inhibition of CYP1A2 (unknown origin). The data set is classed as ADME.
The target in data set [10] is Cytochrome P450 2C9 (Homo sapiens, UniProt P11712). Kind of data set: Inhibition of CYP2C9 (unknown origin). The data set is classed as ADME.
The target in data set [11] is Cytochrome P450 2C19 (Homo sapiens, UniProt P33261). Kind of data set: Inhibition of CYP2C19 (unknown origin). It counts as ADME.
Data set [12] deals with Cytochrome P450 2D6 (Homo sapiens, UniProt P10635). Kind of data set: Inhibition of CYP2D6 (unknown origin). The data set is classed as ADME.
The test system of data set [13] is HCT-116. Put plainly: Antitumor activity against human HCT-116 cells xenografted in BALB/c nude mouse assessed as tumor size at 20 mg/kg, iv administered for 19 days (reference value: 1264.1+/-95.7 mm3). It counts as functional. Particulars: time 19 day. A general note: In xenograft studies the graft and the host belong to different species.
Data set [14] relates to HCT-116. Kind of data set: Antitumor activity against human HCT-116 cells xenografted in BALB/c nude mouse assessed as tumor growth inhibition at 20 mg/kg, iv administered for 19 days. The settings on record: HCT-116, iv, 456 h, time 19 day, read-out: TGI. The data set is classed as functional.
In data set [15] the test system is Spleen. Kind of data set: Toxicity in BALB/c mouse assessed as effect on spleen by H and E staining based histological analysis. The data set is classed as tissue-based. The settings on record: in vivo.
The subject of data set [16] is Heart. Kind of data set: Toxicity in BALB/c mouse assessed as effect on heart by H and E staining based histological analysis. It counts as tissue-based. Particulars: in vivo.
The test system of data set [17] is Lung. Put plainly: Toxicity in BALB/c mouse assessed as effect on lungs by H and E staining based histological analysis. The data set is classed as tissue-based. Particulars: in vivo.
Data set [18] relates to Kidney. Put plainly: Toxicity in BALB/c mouse assessed as effect on kidney by H and E staining based histological analysis. It counts as tissue-based. Particulars: in vivo.
In data set [19] the test system is Liver. Put plainly: Toxicity in BALB/c mouse assessed as effect on liver by H and E staining based histological analysis. The data set is classed as tissue-based. The settings on record: in vivo.
The subject of data set [20] is Mus musculus. Put plainly: Hyperglycemic activity in ICR mouse model assessed as effect on blood glucose level at 20 mg/kg, iv by glucometer. It counts as toxicity, organism-based. The settings on record: in vivo.

Sequence of Cytochrome P450 1A2 (P05177 whole entry): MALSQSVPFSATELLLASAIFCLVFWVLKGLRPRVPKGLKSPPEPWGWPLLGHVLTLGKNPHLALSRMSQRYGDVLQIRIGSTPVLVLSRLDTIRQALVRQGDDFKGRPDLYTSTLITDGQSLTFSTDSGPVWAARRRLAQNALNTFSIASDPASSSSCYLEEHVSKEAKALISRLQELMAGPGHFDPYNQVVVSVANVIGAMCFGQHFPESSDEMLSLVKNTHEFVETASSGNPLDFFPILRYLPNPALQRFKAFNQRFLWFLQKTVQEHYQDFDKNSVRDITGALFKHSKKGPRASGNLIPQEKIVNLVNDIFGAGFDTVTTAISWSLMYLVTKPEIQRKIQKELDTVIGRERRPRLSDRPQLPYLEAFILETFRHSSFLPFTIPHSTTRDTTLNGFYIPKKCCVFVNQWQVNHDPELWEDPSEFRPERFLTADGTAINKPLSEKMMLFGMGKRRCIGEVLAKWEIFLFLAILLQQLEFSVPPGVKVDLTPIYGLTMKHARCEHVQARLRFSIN
Sequence of Cytochrome P450 2C19 (P33261 whole entry): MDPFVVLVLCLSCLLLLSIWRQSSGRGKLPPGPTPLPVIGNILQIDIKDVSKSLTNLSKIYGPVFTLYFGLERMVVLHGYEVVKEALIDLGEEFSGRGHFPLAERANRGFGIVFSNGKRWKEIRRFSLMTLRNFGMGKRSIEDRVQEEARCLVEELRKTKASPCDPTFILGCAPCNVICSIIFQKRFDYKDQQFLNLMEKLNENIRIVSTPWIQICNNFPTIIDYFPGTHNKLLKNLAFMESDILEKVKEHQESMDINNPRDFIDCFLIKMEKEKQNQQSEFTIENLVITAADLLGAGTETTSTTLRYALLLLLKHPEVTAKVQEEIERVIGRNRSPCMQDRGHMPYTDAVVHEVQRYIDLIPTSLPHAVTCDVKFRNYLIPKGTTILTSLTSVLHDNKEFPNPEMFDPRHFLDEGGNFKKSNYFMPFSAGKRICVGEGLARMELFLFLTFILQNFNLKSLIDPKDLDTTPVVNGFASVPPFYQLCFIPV
Sequence of Cytochrome P450 2D6 (P10635 whole entry): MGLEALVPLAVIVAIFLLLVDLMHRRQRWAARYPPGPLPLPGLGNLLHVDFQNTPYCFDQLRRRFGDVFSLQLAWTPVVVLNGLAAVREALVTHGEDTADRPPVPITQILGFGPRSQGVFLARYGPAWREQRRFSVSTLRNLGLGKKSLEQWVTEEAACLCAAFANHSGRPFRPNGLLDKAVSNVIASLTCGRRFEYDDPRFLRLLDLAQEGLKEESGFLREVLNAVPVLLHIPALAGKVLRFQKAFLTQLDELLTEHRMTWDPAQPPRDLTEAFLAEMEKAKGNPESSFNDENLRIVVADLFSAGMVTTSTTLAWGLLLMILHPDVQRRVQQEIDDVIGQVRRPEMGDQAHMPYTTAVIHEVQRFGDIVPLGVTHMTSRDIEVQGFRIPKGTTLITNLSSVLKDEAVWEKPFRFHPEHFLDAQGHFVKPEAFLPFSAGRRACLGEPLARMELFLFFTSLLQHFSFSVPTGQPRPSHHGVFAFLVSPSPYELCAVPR
Sequence of Cytochrome P450 2C9 (P11712 whole entry): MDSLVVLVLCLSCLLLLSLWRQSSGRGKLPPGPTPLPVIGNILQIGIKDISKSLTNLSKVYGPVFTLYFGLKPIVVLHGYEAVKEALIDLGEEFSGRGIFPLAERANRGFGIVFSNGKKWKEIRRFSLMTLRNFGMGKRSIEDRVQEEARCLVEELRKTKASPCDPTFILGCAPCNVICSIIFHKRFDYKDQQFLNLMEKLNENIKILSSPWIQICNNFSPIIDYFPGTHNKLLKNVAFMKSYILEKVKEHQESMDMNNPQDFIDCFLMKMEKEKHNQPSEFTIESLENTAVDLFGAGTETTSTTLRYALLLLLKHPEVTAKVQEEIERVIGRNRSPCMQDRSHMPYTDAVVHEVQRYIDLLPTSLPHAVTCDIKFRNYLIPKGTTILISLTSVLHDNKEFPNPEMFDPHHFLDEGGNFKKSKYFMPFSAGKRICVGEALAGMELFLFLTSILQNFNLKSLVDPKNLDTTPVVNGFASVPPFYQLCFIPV

For `CN(C)C1CCN(C(=O)c2ccc(NC(=O)Nc3ccc(-c4nc(N5CCOCC5)nc(N5CCOCC5)n4)cc3)cc2)CC1` [GEDATOLISIB], the inhibition entry in data set [1] was “Active”. Moreover, the Stability result in data set [2] is recorded as “Stable”. Moreover, the AUC(0-t) at 72 h in data set [3] was found to be 41800 ng·h/mL. Besides, in [4], the AUC(0-inf) stood at 42200 ng·h/mL. The same molecule registered an MRT in [5] of 9.1 h. The molecule also had a half-life in data set [6] of 15 h. In addition, the Tmax in data set [7] is 1.8 min. In addition, the Vdss in data set [8] came out at 10.3 L/kg. The pIC50 in data set [9], in [10], in [11] and in [12] was below 4.30 in each case. In addition, the Activity in data set [13] was 800.3 mm3; in [15], “Non-Toxic”; in data set [16] it was “Non-Toxic”; in data set [17], “Non-Toxic”; in data set [18], “Non-Toxic”; in [19] it was “Non-Toxic”. Further, in [20], the Activity entry was “Toxic”. Further, the inhibition in vivo at 20 mg/kg in [14] was determined as 41.2%.

For orientation: AUC(0-t) means exposure summed from dosing to a finite time, without extrapolation to infinity. Low readings indicate less exposure, high ones more exposure. As usually defined, the AUC(0-inf) is total exposure, with the tail of the curve extrapolated. In general, MRT refers to the average time that molecules of a dose stay in the body. The term half-life denotes the time needed for the level to fall by half in the phase considered. Read a high half-life as slow loss. The Tmax is the time from dosing to the highest level. For orientation: Vdss means a proportionality between amount in the body and measured concentration, not a real space. As usually defined, the pIC50 is −log10 of the IC50, conventionally taken in molar units. Read a high pIC50 as a small IC50.
